Results on one compound are retold here after patent publication US6399661B1, “Oral creatine supplement and method for making same” (priority 2000, dated 2002).

A short description of series [1]: conversion of creatine to creatinine in solutions of different pH. Type of series: physicochemical. From the text: FIG. 1 is a graph showing rate of creatinine formation from creatine as a function of pH;
FIG. 2 is a graph showing rate of creatine loss as a function of time upon dissolution in different pH buffers; and
FIG. 3 is a chart showing time in minutes for conversion of 1 g creatine to creatinine in 2 liter at given pH.
The rate of creatinine formation from creatine as a function of pH is shown in FIG. 1 in accordance with research conducted by the inventor. In FIG. 2, the rate of creatine loss as a function of time upon dissolution in different pH buffers is shown.

The conditions of series [2]: acidic solutions having a pH range of from 3-6; cited from earlier work.
Another series concerns human body. As to conditions: 5 grams of creatine, 4-6 times a day, for two or more days, oral; cited from earlier work.

`CN(CC(=O)O)C(=N)N` [creatine]: the “creatine remaining following dissolution in a pH buffer” value in series [1] (different pH buffers, as a function of time (FIG. 2)) is recorded as “the higher the pH, the higher the creatine remaining”. Also, the “rate of conversion of one gram of creatine to creatinine” value in series [1] (various pH solutions, 1 g creatine in 2 liter (FIG. 3)) is listed as “substantially slowed by increasing the pH of the solution”. The “rate of conversion of creatine to creatinine” value in series [2] is listed as “almost instantaneous”. For the same compound, the total creatine concentration result with human body is “significant increase”.
